Laboratory results reported in patent US9469632B2, “6-substituted-3H-1,3-benzothiazol-2-one compounds as TARP-gamma 8 dependent AMPA receptor antagonists” (Eli Lilly and Company, priority 2014, dated 2016).
Several values for one entry are separate records, joined by “and”; a condition that tells them apart may be missing. Identical values can stand only once.

Columns and labels:
formalin induced pain = experiment: Manual formalin induced pain model; assay type: in vivo; details: mice, p.o.
Protocol: The manual formalin induced pain model is well known for screening compounds for analgesic properties (Mogil J. S. et al., Heritability of nociception I: Responses of 11 inbred mouse strains on 12 measures of nociception. Pain 80 (1999) 67-82). The assay is performed in Plexiglas® boxes approx. 10 cm×10 cm×10 cm in size. A minor placed at the back of the cage allows the unhindered observation of the formalin injected paw. Non-fasted male mice (Harlan (HSD) CD1-Icr) are placed individually in the cubicles at least 60 min. prior to the experiment. All testing is conducted between 08:00 and 16:00 hr. and the testing room temperature is maintained at 21-23° C. […] Formalin (20 uL of a 5% solution in 0.9% saline) is injected subcutaneously into the plantar surface of the left hind paw with a 27 gauge needle. Observation starts immediately after the formalin injection. Formalin induced pain is quantified by recording the number of seconds each licking event lasts in 5 min intervals. The pain scoring is measured for 60 min. after the formalin injection. Two phases of pain behavior are observed as previously described (Wheeler-Aceto, H., Porreca, F. and Cowan, A., The rat paw formalin test: comparison of noxious agents, Pain 40 (1990) 229-238). The early phase starts immediately after the formalin injection and lasts approximately 5 min., followed by the late phase that starts between minutes 10-15 with a maximum response typically observed around 25-40 min after the formalin injection. After the 60 min. observation period, animals are sacrificed with CO2 followed by cervical dislocation. Of the different scoring parameters reported for the formalin test, the total time spent licking and biting the injected paw is considered to be most relevant. (Abbott et al., The formalin test: scoring properties of the first and second phases of the pain response in rats, Pain 60 (1995) 91-102; Coderre et al., The formalin test: a validation of the weighted-scores method of the behavioral pain rating, Pain 54 (1993) 43-50).) The early phase score is the sum of time spent licking (seconds) from time 0 to 5 min. The late phase score is obtained by adding the total number of seconds spent licking from minute 15 to min 55 of the observation period. Data are presented as means with standard errors of means (±SEM). Data are evaluated by one-way analysis of variance (ANOVA) and the appropriate contrasts analyzed by Dunnett “t” test for two sided comparisons. Differences are considered to be significant if the P-value is less than 0.05. (Abbott, supra.; Coderre, supra.; and Wheeler-Aceto, supra.)

[1] = target: T1, GluA1 flip isoform devoid of TARP (Homo sapiens, UniProt P42261); experiment: FLIPR antagonist functional assay, GluA1 flip expressed without TARP in CHO-S cells; assay type: cell-based; details: glutamate 45 μM plus CTZ 20 μM, assay limit of 9260 nM
T1 construct: expressed in transfected cells; host or cells: CHO-S (Invitrogen), transient transfection
Protocol: (§1) Briefly, CHO-S (Invitrogen) cells are grown in suspension in 50/50 custom media to a density of 1×10^7 cells/ml. (50/50 custom media is a low calcium media made as a 1:1 (v/v) mixture of CD CHO media (Gibco #10743) and a custom complete media. The custom complete media is made by adding 0.40 mg/L tropolone, 5.00 mg/L insulin, 20 mM HEPES, and 0.075% Pluronic® F68 to a custom basal media having the following formula: (values as mg/L unless otherwise specified) 11.01 anhydrous calcium chloride, 0.050 ferric nitrate-9H2O, 0.420 ferrous sulfate-7H2O, 28.64 anhydrous magnesium chloride, 48.84 anhydrous magnesium sulfate, 312.14 KCl, 5505.96 NaCl, 62.57 monobasic sodium phosphate, 71.28 anhydrous dibasic sodium phosphate, 0.432 zinc sulfate-7H2O, 10.0 ethanolamine HCl, 6000 D-glucose (dextrose), 0.210 DL lipoic acid thioctic, 0.081 putrescine 2 HCl, 4.78 sodium hypoxanthine, 220.24 sodium pyruvate, 0.730 thymidine, 8.90 L-alanine, 211.23 L-arginine HCl, 15.02 L-asparagine H2O, 13.31 L-aspartic acid, 62.67 cystine 2 HCl, 7.360 L-glutamic acid, 146.16 L-Glutamine, 30.0 gylicine, 42.04 L-histidine HCl 2 H2O, 105.11 L-isoluecine, 105.11 L-luecine, 146.16 L-lysine HCl, 30.03 L-methionine, 66.07 L-phenylalanine, 17.27 L-proline, 42.04 L-serine, 95.1 L-threonine, 16.02 L-typtophan, 104.11 L-tyrosine disodium salt, 94.1 L-valine, 8.99 choline chloride, 4.00 folic acid, 12.61 I inositol, 4.00 niacinamide, 4.00 pyridoxal HCl, 0.031 pyridoxine HCl, 0.400 riboflavin, 4.00 sodium pantothenate, 4.00 thiamine HCl, 0.680 vitamin B 12, and 2200 sodium bicarbonate.) Cells are centrifuged at 1000×g for […] and resuspended in fresh 50/50 custom media at 2×10^6 cells/ml. For batch transfection, 2 mg of total DNA(s) is used for each liter of cells. For GluA1-γ8 transfection of CHO-S cells, human GluA1 Qflop-Cacng8-pBudCE4.1 DNA (Qiagen) and human EAAT3 pAN104 DNA (Qiagen, a […]) are mixed in a ratio of 2:3. For GluA1-γ2 transfection of CHO-S cells, human GluA1 Qflop-Cacng2-pBudCE4.1 (Qiagen) is used. For GluA1 flip transfection of CHO-S cells, human GluA1 flip pcDNA3.1 DNA (Qiagen) is used. DNA(s) and FreeStyle™ MAX Reagent (Invitrogen cat#16447-500) are added to basal custom media (see above) in the proportions of 10 μg total DNA: 10 plFreeStyleTm MAX Reagent: 1 ml media, to form a DNA complex. […]
(§2) Frozen transfected CHO-S cells expressing AMPA receptors are thawed and plated in Dulbecco's Modified Eagle Media (DMEM media) (Gibco, cat#11960) containing 5% dialyzed Fetal Bovine Serum (Gibco, cat#26400-036) and 20 mM HEPES at 50,000 cells per well in 384-well Poly-D-lysine coated plates (Becton Dickinson, cat#354663) and cultured overnight at 37° C. On the day of an experiment, two fluorescence dye loading buffers are prepared. […]

[2] = target: T2, TARP γ8 dependent GluA1 flop receptors (Homo sapiens, UniProt P42261+Q8WXS5); experiment: FLIPR antagonist functional assay, GluA1 flop co-expressed with TARP γ8 in CHO-S cells; assay type: cell-based; details: glutamate 45 μM plus CTZ 20 μM, read-out: relative IC50, inhibition of glutamate plus CTZ activation of TARP γ8 dependent GluA1 flop receptors
T2 construct: expressed in transfected cells; host or cells: CHO-S (Invitrogen), transient transfection
Protocol: as §1, §2

[3] = target: T3, TARP γ2 dependent GluA1 flop receptors (Homo sapiens, UniProt P42261+Q9Y698); experiment: FLIPR antagonist functional assay, GluA1 flop co-expressed with TARP γ2 in CHO-S cells; assay type: cell-based; details: glutamate 45 μM plus CTZ 20 μM, assay limit of 9260 nM
T3 construct: expressed in transfected cells; host or cells: CHO-S (Invitrogen), transient transfection
Protocol: as §1, §2

T1 sequence (P42261 19-906 isoform P42261-2 limits assumed): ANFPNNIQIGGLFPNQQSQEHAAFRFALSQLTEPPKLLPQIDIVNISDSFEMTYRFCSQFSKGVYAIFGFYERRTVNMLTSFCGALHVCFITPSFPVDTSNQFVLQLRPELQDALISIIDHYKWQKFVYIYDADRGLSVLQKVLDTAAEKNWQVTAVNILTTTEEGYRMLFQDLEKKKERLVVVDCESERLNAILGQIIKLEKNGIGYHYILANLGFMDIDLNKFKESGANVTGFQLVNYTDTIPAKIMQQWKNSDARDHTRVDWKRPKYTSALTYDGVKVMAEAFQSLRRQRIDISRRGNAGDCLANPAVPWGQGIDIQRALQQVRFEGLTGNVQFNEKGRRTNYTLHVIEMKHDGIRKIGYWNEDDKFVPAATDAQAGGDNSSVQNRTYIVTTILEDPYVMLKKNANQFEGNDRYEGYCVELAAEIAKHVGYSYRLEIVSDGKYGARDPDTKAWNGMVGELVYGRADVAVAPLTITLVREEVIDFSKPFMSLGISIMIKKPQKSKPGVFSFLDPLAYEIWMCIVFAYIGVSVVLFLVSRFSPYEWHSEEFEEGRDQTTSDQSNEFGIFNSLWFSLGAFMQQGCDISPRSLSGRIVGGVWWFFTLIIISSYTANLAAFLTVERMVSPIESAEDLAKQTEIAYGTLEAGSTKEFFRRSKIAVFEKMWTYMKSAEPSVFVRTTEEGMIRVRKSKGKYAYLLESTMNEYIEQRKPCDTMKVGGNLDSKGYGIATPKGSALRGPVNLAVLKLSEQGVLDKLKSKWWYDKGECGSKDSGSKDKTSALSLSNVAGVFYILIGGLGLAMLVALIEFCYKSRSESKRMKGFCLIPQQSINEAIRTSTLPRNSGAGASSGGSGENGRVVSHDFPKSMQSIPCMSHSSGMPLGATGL
T2 sequence (P42261 19-906): as the sequence (P42261 19-906 isoform P42261-2 limits assumed) above, with G740N, S750N, V754L, S760N, K772G, D773G, S774G, G775D counted along it
T2 sequence (Q8WXS5 whole entry): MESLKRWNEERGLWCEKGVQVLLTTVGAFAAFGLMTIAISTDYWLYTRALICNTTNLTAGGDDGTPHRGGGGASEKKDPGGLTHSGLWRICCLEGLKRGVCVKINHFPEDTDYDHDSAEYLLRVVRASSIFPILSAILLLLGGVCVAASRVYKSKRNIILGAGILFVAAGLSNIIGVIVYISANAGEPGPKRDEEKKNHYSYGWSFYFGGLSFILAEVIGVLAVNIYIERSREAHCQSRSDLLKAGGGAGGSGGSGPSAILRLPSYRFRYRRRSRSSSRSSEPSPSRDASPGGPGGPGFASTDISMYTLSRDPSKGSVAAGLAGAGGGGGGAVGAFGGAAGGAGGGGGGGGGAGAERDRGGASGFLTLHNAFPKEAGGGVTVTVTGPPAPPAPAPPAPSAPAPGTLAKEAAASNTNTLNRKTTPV
T3 sequence (P42261 19-906): as the sequence (P42261 19-906 isoform P42261-2 limits assumed) above, with G740N, S750N, V754L, S760N, K772G, D773G, S774G, G775D counted along it
T3 sequence (Q9Y698 whole entry): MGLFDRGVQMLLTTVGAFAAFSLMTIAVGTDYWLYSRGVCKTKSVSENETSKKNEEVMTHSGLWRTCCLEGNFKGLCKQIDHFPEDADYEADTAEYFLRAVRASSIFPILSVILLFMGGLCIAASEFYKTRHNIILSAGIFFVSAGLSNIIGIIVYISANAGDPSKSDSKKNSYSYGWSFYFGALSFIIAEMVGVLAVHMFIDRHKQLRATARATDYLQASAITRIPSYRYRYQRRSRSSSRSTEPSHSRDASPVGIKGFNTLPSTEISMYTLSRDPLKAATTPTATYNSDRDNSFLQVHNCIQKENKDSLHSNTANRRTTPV

SMILES | Percent reversal of Late Phase Licking (formalin induced pain; 3 mg/Kg) [%] | Percent reversal of Late Phase Licking (formalin induced pain; 10 mg/Kg) [%] | Percent reversal of Late Phase Licking (formalin induced pain; 30 mg/Kg) [%] | Percent reversal of Late Phase Licking (formalin induced pain; 60 mg/Kg) [%] | Percent reversal of Late Phase Licking (formalin induced pain; positive control 80 mg/Kg Tramadol, one value per experiment (Examples 3, 27, 30, 55)) | IC50 [1] [µM] | IC50 [2] [µM] | IC50 [3] [µM] | Percent reversal of Late Phase Licking (formalin induced pain; 1 mg/Kg) [%]
CC(c1ccc2[nH]c(=O)sc2c1)c1ccn(-c2ccc(CCC(C)(C)O)cn2)n1 (single isomer, unassigned) [Example 30] | 8.88 | 11.77 | 47.77 | 62.14 |  |  |  |  | 
COc1cccc(C2(O)CCCCC2CN(C)C)c1 (centres unmarked) [Tramadol, tramadol, reference compound] |  |  |  |  | 94.7% and 86.97% and 57.96% and 81.84% |  |  |  | 
CC(c1ccc2[nH]c(=O)sc2c1)c1ccn(-c2ccc(N3CCC(O)CC3)cn2)n1 (single isomer, unassigned) [Example 3, 6-(1-(1-(5-(4-hydroxypiperidin-1-yl)pyridin-2-yl)-1H-pyrazol-3-yl)ethyl)benzo[d]thiazol-2(3H)-one] | 43.8 | 66.2 |  |  |  | > 9.26 | 0.0911 ± 0.0481 | > 9.26 | 32.3
CC(O)COCc1ccc(-n2ccc(C(C)c3ccc4[nH]c(=O)sc4c3)n2)nc1 (single isomer, unassigned) [Example 55, 6-[1-[1-[5-(2-hydroxypropoxymethyl)-2-pyridyl]pyrazol-3-yl]ethyl]-3H-1,3-benzothiazol-2-one] | 25.64 | 31.08 | 63.47 |  |  |  |  |  | 
C[C@@H](c1ccc2[nH]c(=O)sc2c1)c1ccn(-c2ccc(CCO)cn2)n1 (single isomer, unassigned) [Example 27] |  | 24.27 | 57.15 | 62.14 |  | > 9.26 | 0.0616 ± 0.0235 | > 9.26 | 
CC(c1ccc2[nH]c(=O)sc2c1)c1csc(-c2ccccn2)n1 (single isomer, unassigned) [Example 53, 6-[1-(2-pyridin-2-yl-thiazol-4-yl)-ethyl]-3H-benzothiazol-2-one] |  |  |  |  |  | > 9.26 | 0.0656 ± 0.0149 | > 9.26 | 
CC(=O)c1ccc(-c2csc(C(C)c3ccc4[nH]c(=O)sc4c3)n2)nc1 (single isomer, unassigned) [Example 54, 6-[1-[4-(5-acetyl-2-pyridyl)thiazol-2-yl]ethyl]-3H-1,3-benzothiazol-2-one] |  |  |  |  |  | > 9.26 | 0.0826 ± 0.0562 | > 9.26 | 
